For the test, the system named is liver cancer tumors (Standard Risk Hepatoblastoma). Nature of the test: Liver cancer study: cisplatin alone vs cisplatin + ImmunAG, tumor size. In kind it is in vivo, human. From the text:
Patient Characteristics. There were 99 men and 18 women in the trial. The average age was 53, with a minimum age of 31 and a maximum age of 78. Eighty-six patients (73.5%) were preoperative TACE negative, and 31 patients (26.49%) were preoperative TACE positive. Seventeen patient (14.52%) were HBsAg negative and 100 patients (85.47%) were HBsAg positive. One hundred six patients […] were Anti-HCV negative and 11 patients […] were Anti-HCV positive. Eighteen patients […] were negative for cirrhosis and 99 patients (83.9%) were positive for cirrhosis. Preoperative alpha-fetoprotein (μg/L) was an average of 18.3 with a minimum value of 1.7 and a maximum value of 1089. Cumulative tumor size was an average of 4.89 cm with a minimum of 2.37 cm and a maximum value of 19.62 cm. Fifty-three people had 2 tumors in the liver, 52 people has 3 liver tumors and 12 people had 4 tumors. The average tumor number is […]. There were 7 cases (5.98%) of high Necrosis differentiation, 106 cases of medium (90.59%) Necrosis differentiation, and 4 cases (3.41%) of low Necrosis differentiation. […] The rest, 99 patient (84.6%) had liver capsule invasion in some form.
All these patients were suffering from Standard Risk (SR) Hepatoblastoma- and not Hepatocellular carcinoma or Cholangiocarcinoma. Of these patients, 57 of the men, and 7 of the women, had surgical resectioning of some degree. However at this point of treatment resectioning was not considered a viable option.
There were 54 men and 10 women in the Cisplatin alone treatment group. There were 45 men and 8 women in the Cisplatin+ImmunAG group. The Cisplatin alone treatment group received a dosage of 50-70 mg/m^2, every four weeks for a duration of the study. The Cisplatin+ImmunAG group received the same dosage of Cisplatin as noted above in combination with a 80 mg-600 mg/day dose of ImmunAG (composition comprising CBD, humulene, and β-caryophyllene). The exact dose of ImmunAG was determined based on patient's sex and height, and was administered in three doses over the course of the day.

On to `N.N.[Cl][Pt][Cl]` [Cisplatin], for which, under “after treatment, cisplatin 50-70 mg/m^2 every four weeks, ImmunAG 80 mg-600 mg/day”, the “Final tumor sizes, Mean” value amounted to 5.659. In addition, the “Initial tumor sizes, Mean” value (before treatment, liver tumors of patients) stood at 4.851. The “Change of mean tumors” value (final vs initial) came out at 17%. Further, the “Mean tumors relative to initial (from 1)” value (final vs initial = 1) stood at 1.17.

The values are drawn from patent US20210022305A1, “A HUMULUS PLANT VARIANT AND EXTRACTS THEREOF” (BOMI LLC, priority 2018, published 2021).
